Reference: publication PMC5849211 (Chemical Science, 2017)

System: Saos-2 cells
Test: MTT assay, Saos-2 cells
Format: cell-based, human
Conditions: 0.5 mM levamisole, 3 h + 24 h, n = 3

## c1ccc([C@H]2CN3CCSC3=N2)cc1 [levamisole]
  cell viability, Saos-2, levamisole alone: no obvious effect on the cell viability alone
